Results taken from ChEMBL document CHEMBL5608141, “Identification of compartment-specific drug sensitivities in CRC organoid-stroma co-cultures” (2024).

Columns and labels:
Type in all cases: functional, Homo sapiens
Design in all cases: dose or concentration left out as unconfirmed
Colon cancer organoid [1] = assay: Identification of compartment-specific drug sensitivities in O20 CRC organoid-stroma F20 CAF co-cultures. Organoid is transduced with Lucferase2-P2A-EGFP lentivirus, fibroblast with Renilla-dsRed lentivirus. Dual-Glo Luciferase assay is used to report viability data.
Colon cancer organoid [2] = assay: Identification of compartment-specific drug sensitivities in O14 CRC organoid-stroma F14 CAF co-cultures. Organoid is transduced with Lucferase2-P2A-EGFP lentivirus, fibroblast with Renilla-dsRed lentivirus. Dual-Glo Luciferase assay is used to report viability data.
Colon cancer organoid [3] = assay: Identification of compartment-specific drug sensitivities in O06 CRC organoid-stroma F06 CAF co-cultures. Organoid is transduced with Lucferase2-P2A-EGFP lentivirus, fibroblast with Renilla-dsRed lentivirus. Dual-Glo Luciferase assay is used to report viability data.
[4] = Transduced with Lucferase2-P2A-EGFP lentivirus
[5] = Transduced with Renilla-dsRed lentivirus

Row | SMILES | Cell Viability (Colon cancer organoid [1]; [4]) | Cell Viability (Colon cancer organoid [1]; [5]) | Cell Viability (Colon cancer organoid [2]; [4]) | Cell Viability (Colon cancer organoid [2]; [5]) | Cell Viability (Colon cancer organoid [3]; [4]) | Cell Viability (Colon cancer organoid [3]; [5])
1 | O[C@H]1CC[C@H](Nc2ncc3nc(Nc4c(F)cc(F)cc4F)n([C@H]4CCOC4)c3n2)CC1 [TANZISERTIB] | 128.622% | 97.8883% | 133.231% | 127.243% | 96.802% | 109.826%
2 | Cc1nc(-c2cn3c(n2)-c2ccc(-c4cnn(C(C)(C)C(N)=O)c4)cc2OCC3)n(C(C)C)n1 [TASELISIB] | 15.8824% | 146.008% | 38.4959% | 67.2929% | 42.3556% | 62.2904%
3 | COc1cccc2c1c(O)c(C(=O)N(C)c1ccc(C(F)(F)F)cc1)c(=O)n2C [TASQUINIMOD] | 64.5374% | 99.9703% | 112.754% | 82.8858% | 78.5663% | 130.265%
4 | C[C@@H]1CCN(C(=O)CC#N)C[C@@H]1N(C)c1ncnc2[nH]ccc12.O=C(O)CC(O)(CC(=O)O)C(=O)O [TOFACITINIB CITRATE] | 113.321% | 86.9545% | 83.3835% | 105.446% | 105.115% | 91.9737%
5 | CCC(=O)N1CCN(c2ccc(-n3c(=O)ccc4cnc5ccc(-c6cnc7ccccc7c6)cc5c43)cc2C(F)(F)F)CC1 [TORIN1] | 7.451% | 44.8651% | 10.1866% | 12.2493% | 4.705% | 40.1911%
6 | Cc1cnc(-c2cc(Cl)ccc2F)cc1-n1c(=O)n(CC(N)=O)c2cnccc21 [TP-008] | 64.1266% | 114.054% | 74.2388% | 68.4272% | 13.7504% | 213.932%
7 | Cn1nc(C(F)(F)F)cc1-c1cnc(N2CCc3cc(S(=O)(=O)Nc4c(F)cc(Cl)cc4F)cc(N4CCCC4=O)c32)nc1 [TP-020] | 86.7802% | 95.2287% | 113.877% | 116.294% | 69.3758% | 110.898%
8 | Cc1cc(-n2nc(Cc3cc(F)cc(C(F)(F)F)c3)nc2C)ccc1C(N)=O [TP-024] | 120.055% | 118.791% | 124.645% | 106.61% | 115.389% | 121.941%
9 | CC1CCN(c2ccnc(NCc3cn(C)cn3)n2)CC1 [TP-040] | 75.5826% | 95.0735% | 70.4837% | 82.5883% | 104.895% | 163.738%
10 | CN1CCN(c2ccnc(NCCc3ccccc3)n2)CC1 [TP-040n] | 67.1911% | 97.5889% | 106.261% | 101.91% | 57.9985% | 123.721%
11 | CC(=O)Nc1cccc(-n2c(=O)n(C3CC3)c(=O)c3c(Nc4ccc(I)cc4F)n(C)c(=O)c(C)c32)c1 [TRAMETINIB] | 2.051% | 46.1337% | 7.5472% | 16.7625% | 4.775% | 48.8246%
12 | Cc1ccc2[nH]c(CNCCCc3ccncc3)cc(=O)c2c1 [UCSF924NC] | 121.808% | 109.302% | 107.168% | 100.112% | 92.2965% | 82.507%
13 | Cc1ccc2nc(CNCCCOc3ccccc3)cc(O)c2c1 [UCSF924] | 115.834% | 125.381% | 102.025% | 95.7371% | 107.729% | 156.395%
14 | CC(C)Oc1ccc(-c2nn([C@@H](C)c3oc4ccc(F)cc4c(=O)c3-c3cccc(F)c3)c3ncnc(N)c23)cc1F [UMBRALISIB] | 103.314% | 87.858% | 161.449% | 91.4949% | 96.678% | 112.425%
15 | CC[C@@H]1CN(C(=O)NCC(F)(F)F)C[C@@H]1c1cnc2cnc3[nH]ccc3n12 [UPADACITINIB] | 123.879% | 83.5298% | 147.848% | 94.1248% | 104.182% | 86.3482%
16 | CNC(=O)c1ccccc1Nc1cc(Nc2ccc(N3CCOCC3)cc2OC)ncc1C(F)(F)F [VS-4718] | 13.9942% | 72.4438% | 18.7172% | 41.7282% | 52.8737% | 57.2971%
17 | O=C(NNS(=O)(=O)c1ccccc1F)c1cc(F)cc(-c2ccccn2)c1 [WM-1119] | 69.0433% | 152.012% | 29.5498% | 87.8305% | 97.0333% | 108.11%
18 | O=C(NNS(=O)(=O)c1ccccc1)c1cc(-c2ccnnc2)ccc1F [WM-2474] | 104.944% | 126.08% | 98.8891% | 109.079% | 92.1572% | 93.3483%
19 | C=CC(=O)N1CCC([C@@H]2CCNc3c(C(N)=O)c(-c4ccc(Oc5ccccc5)cc4)nn32)CC1 [ZANUBRUTINIB] | 8.4337% | 202.782% | 25.5759% | 117.13% | 36.1998% | 136.235%
20 | Nc1nc(NCc2ccccc2)nc(-c2cccc(CO)c2)n1 [ZINC32547799] | 125.25% | 66.6285% | 98.7801% | 87.8082% | 97.3324% | 116.001%
21 | FC(F)c1nc2ccccc2n1-c1nc(N2CCOCC2)nc(N2CCOCC2)n1 [ZSTK-474] | 124.253% | 95.7276% | 72.7664% | 74.8211% | 29.4296% | 101.088%
